# In patent US20050215543A1, “Methods of treating HIV infection” (priority 2004, published 2005):
# Key:
# HIV-1 Bal = test: Drug susceptibility assay, PM-1 cells infected with HIV-1 Bal, p24 assay readout (combinations with CCR5 inhibitors); format: cell-based; conditions: for Combination Indices at % HIV Inhibition (Confidence Interval) 50%: 50% HIV inhibition; for Combination Indices at % HIV Inhibition (Confidence Interval) 50% / Combination Indices at % HIV Inhibition (Confidence Interval) 75% / Combination Indices at % HIV Inhibition (Confidence Interval) 90%: p24, 95% CI in parenthesis; for Combination Indices at % HIV Inhibition (Confidence Interval) 75%: 75% HIV inhibition; for Combination Indices at % HIV Inhibition (Confidence Interval) 90%: 90% HIV inhibition
# Experimental: (§1) Virus and cell lines. The T-cell lines, MT-2 and PM-1 were obtained through the AIDS Research and Reference Reagent Program, NIAID, and were contributed by Dr. D. Richman and Dr. R. Gallo, respectively. Both cell lines were cultured in RPMI 1640 medium supplemented with 10% fetal bovine serum, 2 mM L-glutamine and sub-cultured twice a week. The LAI strain of HIV-1 was obtained from the Fred Hutchinson Cancer Research Center, and the Bal strain was from NIH. Both virus stocks were amplified and titered in MT-2 cells (LAI) and PM-1 cells (Bal) using a virus infectivity assay.
# (§2) Drug Susceptibility and Cytotoxicity Assays. For drug susceptibility assays, MT-2 cells were infected with HIV-1 LAI (or PM-1 cells with HIV-1 Bal) at an MOI of 0.005, and seeded into 96-well microtiter plates (0.1×10^6 cells/ml) containing serial dilutions of test compounds. […] Each drug ratio consisted of an array of 3-fold serial dilutions, and was performed in quadruplicate. The plates were incubated at 37° C./5% CO2. The MT-2 cells infected with HIV-1 LAI were incubated for 5 days. On day-five post-infection, 20 μl from each well was harvested and quantitated by a reverse transcriptase (RT) assay, or in samples involving non-nucleoside RT inhibitors, an MTS assay. The PM-1 cells infected with HIV-1 Bal and used for studying the combinations with CCR5 inhibitors were incubated for six days. On day-six post-infection, 20 μl from each well was harvested, 20- and 50-fold diluted and quantitated by p24 assay. Cytotoxicity assays were performed using uninfected cells, exposed to the same drug combinations, and incubated for six days. Cell viability was determined by an XTT assay. The CC50 values were calculated by using the exponential form of the median effect equation as mentioned below for calculation of EC50.
# (§3) Analysis of Drug Combination Effects. For determination of CI values, drugs were diluted in a fixed ratio and multiple ratios were analyzed. The drug serial dilutions spanned a range of concentrations near the EC50 value of each compound, so that equivalent antiviral activities could be compared. Concentration-response curves were estimated for each individual drug and every combination using the median-effect equation. The equation was fit using a nonlinear regression routine (Proc Nlin) in PC SAS version 8.01 (SAS Institute Inc., SAS Version 8.01, Cary, N.C.: SAS Institute Inc., 1990).
# (§4) In this equation, Fa stands for “fraction affected,” and represents the fraction of the viral load that has been inactivated. […] ED50 is drug concentration that is expected to reduce the amount of virus by 50%, and m is a parameter that reflects the slope of the concentration-response curve.
# (§5) To assess antiviral effects of different drug combination treatments, combination indices (CIs) were calculated according to Chou and Rideout. The combination index was computed as CI=[D]1/[Dm]1+[D]2/[Dm]2
# (§6) In this equation [Dm]1 and [Dm]2 are the concentrations of drugs that would individually produce a specific level of effect, while [D]1 and [D]2 are the concentrations of drugs in combination that would produce the same level of effect.
# (§7) Theoretically, additivity is implied if the CI is equal to one, synergy if the CI is less than one, and antagonism if the CI is greater than one. […] At best, we can construct a range that contains the likely values for the CI, given the noise in the data. In this report, these ranges are reported in parentheses next to each point estimate of the CI. […] If the range fell entirely above 1.0, we would infer antagonistic behavior. If the range were to include 1.0, we would infer additivity.
# (§8) In carrying out the combination experiments below, the EC50 for Compound 1 and each comparator compound was determined during the course of each study, and used in the subsequent data analysis.
# HIV-1 LAI [1] = test: Drug susceptibility assay, MT-2 cells infected with HIV-1 LAI, MTS assay readout (samples involving non-nucleoside RT inhibitors); format: cell-based; conditions: for EC50: Human immunodeficiency virus 1, MT2, 120 h, single drug, MT-2 cells, HIV-1 LAI, MOI 0.005, 5 days, MTS assay (non-nucleoside RT inhibitors); for Combination Indices at % HIV Inhibition (Confidence Interval) 50%: 50% HIV inhibition; for Combination Indices at % HIV Inhibition (Confidence Interval) 50% / Combination Indices at % HIV Inhibition (Confidence Interval) 75% / Combination Indices at % HIV Inhibition (Confidence Interval) 90%: MTS readout, 95% CI in parenthesis; for Combination Indices at % HIV Inhibition (Confidence Interval) 75%: 75% HIV inhibition; for Combination Indices at % HIV Inhibition (Confidence Interval) 90%: 90% HIV inhibition; for Overall Result: two-drug combination with Compound 1, all ratios and effect levels, MT-2/HIV-1 LAI, MTS assay
# Experimental: as §1, §2, §3, §4, §5, §6, §7, §8
# HIV-1 LAI [2] = test: microbe, parasite or virus in culture; conditions: for Combination Indices at % HIV Inhibition (Confidence Interval) 50%: 50% HIV inhibition; for Combination Indices at % HIV Inhibition (Confidence Interval) 50% / Combination Indices at % HIV Inhibition (Confidence Interval) 75% / Combination Indices at % HIV Inhibition (Confidence Interval) 90%: 95% CI in parenthesis; for Combination Indices at % HIV Inhibition (Confidence Interval) 75%: 75% HIV inhibition; for Combination Indices at % HIV Inhibition (Confidence Interval) 90%: 90% HIV inhibition; for Overall Result: two-drug combination with Compound 1, all ratios and effect levels, MT-2/HIV-1 LAI, RT assay
# Experimental: as §1, §2, §3, §4, §5, §6, §7, §8
# [3] = combination with Compound 1, EC50 ratio 1:1, PM-1/HIV-1 Bal
# [4] = combination with Compound 1, EC50 ratio 1:2.5, PM-1/HIV-1 Bal
# [5] = combination with Compound 1, EC50 ratio 2.5:1, PM-1/HIV-1 Bal
# [6] = combination with Compound 1, EC50 ratio 1:1
# [7] = combination with Compound 1, EC50 ratio 1:2.5
# [8] = combination with Compound 1, EC50 ratio 2.5:1
Structure (SMILES),EC50 (HIV-1 LAI [1]) [nM],Combination Indices at % HIV Inhibition (Confidence Interval) 50% (HIV-1 LAI [1]; [6]),Combination Indices at % HIV Inhibition (Confidence Interval) 75% (HIV-1 LAI [1]; [6]),Combination Indices at % HIV Inhibition (Confidence Interval) 90% (HIV-1 LAI [1]; [6]),Combination Indices at % HIV Inhibition (Confidence Interval) 50% (HIV-1 LAI [1]; [7]),Combination Indices at % HIV Inhibition (Confidence Interval) 75% (HIV-1 LAI [1]; [7]),Combination Indices at % HIV Inhibition (Confidence Interval) 90% (HIV-1 LAI [1]; [7]),Combination Indices at % HIV Inhibition (Confidence Interval) 50% (HIV-1 LAI [1]; [8]),Combination Indices at % HIV Inhibition (Confidence Interval) 75% (HIV-1 LAI [1]; [8]),Combination Indices at % HIV Inhibition (Confidence Interval) 90% (HIV-1 LAI [1]; [8]),Overall Result (HIV-1 LAI [1]),other results
CCO/N=C(\c1ccc(Br)cc1)C1CCN(C2(C)CCN(C(=O)c3c(C)cc[n+]([O-])c3C)CC2)CC1 [Sch-C],,,,,,,,,,,,"Combination Indices at % HIV Inhibition (Confidence Interval) 50% (HIV-1 Bal; [3]): 0.63 (0.51, 0.74); Combination Indices at % HIV Inhibition (Confidence Interval) 75% (HIV-1 Bal; [3]): 0.70 (0.52, 0.89); Combination Indices at % HIV Inhibition (Confidence Interval) 90% (HIV-1 Bal; [3]): 0.80 (0.46, 1.13); Combination Indices at % HIV Inhibition (Confidence Interval) 50% (HIV-1 Bal; [4]): 0.49 (0.41, 0.58); Combination Indices at % HIV Inhibition (Confidence Interval) 75% (HIV-1 Bal; [4]): 0.65 (0.49, 0.80); Combination Indices at % HIV Inhibition (Confidence Interval) 90% (HIV-1 Bal; [4]): 0.86 (0.52, 1.19); Combination Indices at % HIV Inhibition (Confidence Interval) 50% (HIV-1 Bal; [5]): 0.24 (0.19, 0.28); Combination Indices at % HIV Inhibition (Confidence Interval) 75% (HIV-1 Bal; [5]): 0.36 (0.27, 0.45); Combination Indices at % HIV Inhibition (Confidence Interval) 90% (HIV-1 Bal; [5]): 0.55 (0.31, 0.79); EC50 (HIV-1 Bal; single drug, PM-1 cells, HIV-1 Bal, MOI 0.005, 6 days, p24 assay (CCR5 inhibitors)): 3 nM; Overall Result (HIV-1 Bal; two-drug combination with Compound 1, all ratios and effect levels, PM-1/HIV-1 Bal, p24 assay): moderate synergistic to synergistic"
"O=C1Nc2ccc(Cl)cc2[C@@](C#CC2CC2)(C(F)(F)F)O1 [Efavirenz, efavirenz]",0.06,"0.71 (0.50, 0.91)","0.64 (0.38, 0.90)","0.64 (0.22, 1.06)","0.23 (0.17, 0.29)","0.23 (0.17, 0.30)","0.25 (0.12, 0.38)","0.58 (0.45, 0.70)","0.47 (0.32, 0.61)","0.46 (0.23, 0.69)",Synergistic,Overall Result (HIV-1 LAI [1]; listed as efavirenz): strong synergistic effects
"Cc1ccnc2c1NC(=O)c1cccnc1N2C1CC1 [Nevirapine, nevirapine]",63,"0.87 (0.79, 0.94)","0.80 (0.69, 0.90)","0.74 (0.58, 0.89)","0.85 (0.74, 0.96)","0.68 (0.58, 0.79)","0.55 (0.43, 0.66)","0.71 (0.62, 0.81)","0.63 (0.52, 0.73)","0.56 (0.42, 0.70)",Synergistic,Overall Result (HIV-1 LAI [1]; listed as nevirapine): strong synergistic effects
"CC(C)Nc1cccnc1N1CCN(C(=O)c2cc3cc(NS(C)(=O)=O)ccc3[nH]2)CC1 [Delavirdine, delavirdine]",1.6,"0.11 (0.00, 0.26)","0.09 (0.02, 0.15)","0.09 (0.00, 0.21)","0.32 (0.20, 0.43)","0.09 (0.08, 0.10)","0.03 (0.02, 0.03)","0.28 (0.22, 0.35)","0.17 (0.14, 0.20)","0.16 (0.11, 0.35)",Synergistic,Overall Result (HIV-1 LAI [1]; listed as delavirdine): strong synergistic effects
"Cc1cccc(C)c1OCC(=O)N[C@@H](Cc1ccccc1)[C@@H](O)C[C@H](Cc1ccccc1)NC(=O)[C@H](C(C)C)N1CCCNC1=O [Lopinavir, lopinavir]",,,,,,,,,,,,"EC50 (HIV-1 LAI [2]; Human immunodeficiency virus 1, MT2, 120 h): 1 nM; Combination Indices at % HIV Inhibition (Confidence Interval) 50% (HIV-1 LAI [2]; combination with Compound 1, EC50 ratio 1:1 (Compound 1:comparator)): 0.23 (0.16, 0.42); Combination Indices at % HIV Inhibition (Confidence Interval) 75% (HIV-1 LAI [2]; [6]): 0.22 (0.14, 0.30); Combination Indices at % HIV Inhibition (Confidence Interval) 90% (HIV-1 LAI [2]; [6]): 0.26 (0.09, 0.44); Combination Indices at % HIV Inhibition (Confidence Interval) 50% (HIV-1 LAI [2]; [7]): 0.13 (0.08, 0.18); Combination Indices at % HIV Inhibition (Confidence Interval) 75% (HIV-1 LAI [2]; [7]): 0.06 (0.05, 0.08); Combination Indices at % HIV Inhibition (Confidence Interval) 90% (HIV-1 LAI [2]; [7]): 0.03 (0.02, 0.05); Combination Indices at % HIV Inhibition (Confidence Interval) 50% (HIV-1 LAI [2]; [8]): 1.13 (0.73, 1.52); Combination Indices at % HIV Inhibition (Confidence Interval) 75% (HIV-1 LAI [2]; [8]): 0.50 (0.26, 0.74); Combination Indices at % HIV Inhibition (Confidence Interval) 90% (HIV-1 LAI [2]; [8]): 0.30 (0.07, 0.52); Overall Result (HIV-1 LAI [2]): Synergistic; Overall Result (HIV-1 LAI [2]; listed as lopinavir): strong synergistic effects"
